What was measured:
Format in all cases: in vivo
Sesbania exaltata = experiment: Post emergence treatment, herbicidal activity against SEBEX; design: scale not given here
Experimental: (§1) Synergism can be described as an interaction where the combined effect of two or more compounds is greater than the sum of the individual effects of each of the compounds. […] However, the weed control afforded by the compounds, mixtures or compositions is not limited to these species.The analysis of synergism or antagonism between the mixtures or compositions was determined using Colby's equation. Analogously, the Colby's equation can be used to determine synergism of 3-way and higher mixtures: [table] Post Emergence Treatment by the Mixture of (Imazamox+Imazethapyr)+Bentazon Post Emergence Treatment by the Mixture of (Imazamox+Imazethapyr)+Fomesafen Post Emergence Treatment by the Mixture of (Imazamox+Imazethapyr)+Sulfentrazone

Echinochloa crus-galli = experiment: Post emergence treatment, herbicidal activity against ECHCG; conditions: Example 1, post emergence; g ai/ha: imazethapyr 15, imazamox 15, bentazon 50, mixture (15 + 15) + 50
Experimental: as §1, with “(Imazamox+Imazethapyr)+Bentazon” for “(Imazamox+Imazethapyr)+Bentazon Post Emergence Treatment by the Mixture of (Imazamox+Imazethapyr)+Fomesafen Post Emergence Treatment by the Mixture of (Imazamox+Imazethapyr)+Sulfentrazone”

Phalaris canariensis = experiment: Post emergence treatment, herbicidal activity against PHACA; design: scale not given here
Experimental: as §1

Abutilon theophrasti = experiment: Post emergence treatment, herbicidal activity against ABUTH; conditions: Example 1, post emergence; g ai/ha: imazethapyr 15, imazamox 15, bentazon 25, mixture (15 + 15) + 25
Experimental: as §1, with “(Imazamox+Imazethapyr)+Bentazon” for “(Imazamox+Imazethapyr)+Bentazon Post Emergence Treatment by the Mixture of (Imazamox+Imazethapyr)+Fomesafen Post Emergence Treatment by the Mixture of (Imazamox+Imazethapyr)+Sulfentrazone”

Setaria faberi = experiment: Post emergence treatment, herbicidal activity against SETFA
Experimental: as §1, with “of” for “of (Imazamox+Imazethapyr)+Fomesafen Post Emergence Treatment by the Mixture of”

Ambrosia artemisiifolia = experiment: Post emergence treatment, herbicidal activity against AMBEL
Experimental: as §1, with “(Imazamox+Imazethapyr)+Fomesafen” for “(Imazamox+Imazethapyr)+Fomesafen Post Emergence Treatment by the Mixture of (Imazamox+Imazethapyr)+Sulfentrazone”

Conyza canadensis = experiment: Post emergence treatment, herbicidal activity against ERICA
Experimental: as §1, with “(Imazamox+Imazethapyr)+Fomesafen” for “(Imazamox+Imazethapyr)+Fomesafen Post Emergence Treatment by the Mixture of (Imazamox+Imazethapyr)+Sulfentrazone”

Geranium dissectum = experiment: Post emergence treatment, herbicidal activity against GERDI; design: scale not given here
Experimental: as §1

Digitaria sanguinalis = experiment: Post emergence treatment, herbicidal activity against DIGSA; conditions: Example 1, post emergence; g ai/ha: imazethapyr 15, imazamox 15, bentazon 50, mixture (15 + 15) + 50
Experimental: as §1, with “(Imazamox+Imazethapyr)+Bentazon” for “(Imazamox+Imazethapyr)+Bentazon Post Emergence Treatment by the Mixture of (Imazamox+Imazethapyr)+Fomesafen Post Emergence Treatment by the Mixture of (Imazamox+Imazethapyr)+Sulfentrazone”

Leptochloa fusca = experiment: Post emergence treatment, herbicidal activity against LEFFA
Experimental: as §1

Convolvulus arvensis = experiment: Post emergence treatment, herbicidal activity against CONAR; conditions: Example 2, post emergence; g ai/ha: imazethapyr 15, imazamox 15, fomesafen 6, mixture (15 + 15) + 6
Experimental: as §1, with “of” for “of (Imazamox+Imazethapyr)+Bentazon Post Emergence Treatment by the Mixture of”, “(Imazamox+Imazethapyr)+Fomesafen” for “(Imazamox+Imazethapyr)+Fomesafen Post Emergence Treatment by the Mixture of (Imazamox+Imazethapyr)+Sulfentrazone”

Brachiaria decumbens = experiment: Post emergence treatment, herbicidal activity against BRADC; conditions: Example 3, post emergence; g ai/ha: imazethapyr 15, imazamox 15, sulfentrazone 10, mixture (15 + 15) + 10
Experimental: as §1, with “of” for “of (Imazamox+Imazethapyr)+Bentazon Post Emergence Treatment by the Mixture of (Imazamox+Imazethapyr)+Fomesafen Post Emergence Treatment by the Mixture of”

Panicum miliaceum = experiment: Post emergence treatment, herbicidal activity against PANMI; conditions: Example 3, post emergence; g ai/ha: imazethapyr 15, imazamox 15, sulfentrazone 6, mixture (15 + 15) + 6
Experimental: as §1, with “of” for “of (Imazamox+Imazethapyr)+Bentazon Post Emergence Treatment by the Mixture of (Imazamox+Imazethapyr)+Fomesafen Post Emergence Treatment by the Mixture of”

Polygonum persicaria = experiment: Post emergence treatment, herbicidal activity against POLPE
Experimental: as §1, with “of” for “of (Imazamox+Imazethapyr)+Bentazon Post Emergence Treatment by the Mixture of”

[1] = Example 1, post emergence, g ai/ha: imazethapyr 15, imazamox 15, bentazon 50, mixture (15 + 15) + 50
[2] = Example 1, post emergence, g ai/ha: imazethapyr 15, imazamox 15, bentazon 25, mixture (15 + 15) + 25
[3] = Example 2, post emergence, g ai/ha: imazethapyr 15, imazamox 15, fomesafen 10, mixture (15 + 15) + 10
[4] = Example 3, post emergence, g ai/ha: imazethapyr 15, imazamox 15, sulfentrazone 10, mixture (15 + 15) + 10
[5] = Example 2, post emergence, g ai/ha: imazethapyr 15, imazamox 15, fomesafen 6, mixture (15 + 15) + 6
[6] = Example 3, post emergence, g ai/ha: imazethapyr 15, imazamox 15, sulfentrazone 6, mixture (15 + 15) + 6

| Compound | Herbicidal activity against SEBEX Found (Sesbania exaltata; [1]) | Herbicidal activity against ECHCG Found (Echinochloa crus-galli) | Herbicidal activity against PHACA Found (Phalaris canariensis; [2]) | Herbicidal activity against ABUTH Found (Abutilon theophrasti) | Herbicidal activity against SETFA Found (Setaria faberi; [1]) | Herbicidal activity against AMBEL Found (Ambrosia artemisiifolia; [2]) | Herbicidal activity against ERICA Found (Conyza canadensis; [1]) | Herbicidal activity against GERDI Found (Geranium dissectum; [2]) | Herbicidal activity against DIGSA Found (Digitaria sanguinalis) | Herbicidal activity against LEFFA Found (Leptochloa fusca; [2]) | Herbicidal activity against SEBEX Found (Sesbania exaltata; [3]) | Herbicidal activity against SEBEX Found (Sesbania exaltata; [4]) | Herbicidal activity against CONAR Found (Convolvulus arvensis) | Herbicidal activity against BRADC Found (Brachiaria decumbens) | Herbicidal activity against PANMI Found (Panicum miliaceum) | Herbicidal activity against POLPE Found (Polygonum persicaria; [5]) | Herbicidal activity against POLPE Found (Polygonum persicaria; [4]) | Herbicidal activity against PHACA Found (Phalaris canariensis; [5]) | Herbicidal activity against PHACA Found (Phalaris canariensis; [6]) | Herbicidal activity against SETFA Found (Setaria faberi; [6]) | further results |
| --- | --- | --- | --- | --- | --- | --- | --- | --- | --- | --- | --- | --- | --- | --- | --- | --- | --- | --- | --- | --- | --- |
| CC(C)N1C(=O)c2ccccc2NS1(=O)=O [Bentazon, 3-isopropyl-1H-2,1,3-benzothiadiazin-4(3H)-one 2,2-dioxide] | 40 | 35 | 0 | 0 | 10 | 0 | 40 | 0 | 40 | 0 |  |  |  |  |  |  |  |  |  |  |  |
| CCc1cnc(C2=NC(C)(C(C)C)C(=O)N2)c(C(=O)O)c1 (racemic) [Imazethapyr, 5-ethyl-2-[(RS)-4-isopropyl-4-methyl-5-oxo-2-imidazolin-2-yl]nicotinic acid] | 0 | 80 | 30 | 50 | 90 | 98 | 55 | 65 | 80 | 45 | 0 | 0 | 65 | 10 | 70 | 0 | 75 | 30 | 30 | 95 | Herbicidal activity against AMBEL Found (Ambrosia artemisiifolia; [3]): 65; Herbicidal activity against ERICA Found (Conyza canadensis; [3]): 55; Herbicidal activity against GERDI Found (Geranium dissectum; [5]): 65; Herbicidal activity against GERDI Found (Geranium dissectum; [3]): 65; Herbicidal activity against GERDI Found (Geranium dissectum; [6]): 65; Herbicidal activity against LEFFA Found (Leptochloa fusca; [5]): 45; Herbicidal activity against LEFFA Found (Leptochloa fusca; [6]): 45 |
| Cc1nn(-c2cc(NS(C)(=O)=O)c(Cl)cc2Cl)c(=O)n1C(F)F [Sulfentrazone, 2′,4′-dichloro-5′-(4-difluoromethyl-4,5-dihydro-3-methyl-5-oxo-1H-1,2,4-triazol-1-yl)methanesulfonanilide] |  |  |  |  |  |  |  |  |  |  |  | 80 |  | 30 | 0 |  | 80 |  | 0 | 0 | Herbicidal activity against GERDI Found (Geranium dissectum; [6]): 0; Herbicidal activity against LEFFA Found (Leptochloa fusca; [6]): 0 |
| CS(=O)(=O)NC(=O)c1cc(Oc2ccc(C(F)(F)F)cc2Cl)ccc1[N+](=O)[O-] [Fomesafen, 5-(2-chloro-α,α,α-trifluoro-p-tolyloxy)-N-mesyl-2-nitrobenzamide] |  |  |  |  |  |  |  |  |  |  | 80 |  | 0 |  |  | 20 |  | 0 |  |  | Herbicidal activity against AMBEL Found (Ambrosia artemisiifolia; [3]): 65; Herbicidal activity against ERICA Found (Conyza canadensis; [3]): 30; Herbicidal activity against GERDI Found (Geranium dissectum; [5]): 0; Herbicidal activity against GERDI Found (Geranium dissectum; [3]): 70; Herbicidal activity against LEFFA Found (Leptochloa fusca; [5]): 0 |
| COCc1cnc(C2=NC(C)(C(C)C)C(=O)N2)c(C(=O)O)c1 (racemic) [Imazamox, 2-[(RS)-4-isopropyl-4-methyl-5-oxo-2-imidazolin-2-yl]-5-methoxymethylnicotinic acid] | 45 | 98 | 65 | 95 | 98 | 98 | 60 | 80 | 98 | 85 | 45 | 45 | 75 | 35 | 98 | 95 | 95 | 65 | 65 | 98 | Herbicidal activity against AMBEL Found (Ambrosia artemisiifolia; [3]): 70; Herbicidal activity against ERICA Found (Conyza canadensis; [3]): 60; Herbicidal activity against GERDI Found (Geranium dissectum; [5]): 80; Herbicidal activity against GERDI Found (Geranium dissectum; [3]): 95; Herbicidal activity against GERDI Found (Geranium dissectum; [6]): 80; Herbicidal activity against LEFFA Found (Leptochloa fusca; [5]): 85; Herbicidal activity against LEFFA Found (Leptochloa fusca; [6]): 85 |

Source: patent US20160324154A1, “Herbicidal mixtures comprising imazethapyr, imazamox and fomesafen, sulfentrazone or bentazone” (BASF AGROCHEMICAL PRODUCTS B.V., priority 2014, published 2016)
